# Laboratory results published in US10300140B2, “Sur-binding proteins against ERBB3” (I2 PHARMACEUTICALS, INC., priority 2012, dated 2019).
# Tested on: SKBR3 and BT474 cells
# Assay: Enhancement of MK-2206 in SKBR3 and BT474 proliferation
# Type: cell-based, human
# Conditions: 0.125 or 0.375 nM NRG; single agent
# Procedure: The ability of the SgGs to enhance AKT inhibition in unstimulated or NRG-stimulated SKBR3 cells was compared. An AKT inhibitor, MK-2206, was tested against the ErbB2 overexpressing cell lines SKBR3 (13I, 13J) and BT474 (13K, 13L). The indicated amounts of MK-2206 were applied to the cells and they were allowed to proliferate in complete medium containing 10% fetal bovine serum for 6 days (13I, 13K, 13L) or 3 days (13J). Cell content was measured using Cell Titer-Glo® (Promega).
smiles,measurement,value
NC1(c2ccc(-c3nc4ccn5c(=O)[nH]nc5c4cc3-c3ccccc3)cc2)CCC1 [MK-2206],ability to inhibit cell proliferation when cells stimulated with NRG,dramatically reduced
